Laboratory results reported in US20060069132A1, “Azolecarboxamide herbicides” (priority 2004, published 2006).

Legend:
yellow nutsedge = assay: Test C pre-/postemergence herbicide test; format: in vivo, Cyperus esculentus; conditions: preemergence; for Plant response rating (0 = no effect, 100 = complete control), Nutsedge, Yellow: 125 g ai/ha
Outline: (§1)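 Greenhouse-grown plants were evaluated visually 12 to 14 days after treatment, with 100 meaning complete control and 0 no effect. Application was preemergence, or postemergence at 2 to 18 cm.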

corn [1] = assay: Test B pre-/postemergence herbicide test; format: in vivo, Zea mays; conditions: for Plant response rating (0 to 100 scale), Corn: 0 is no effect, preemergence; for Corn plant response rating: postemergence
Outline: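 Pre: seeds sown, then sprayed. Post: 1–4-leaf plants (2–18 cm) sprayed at the same time. Paddy: flooded, treated at 2-leaf stage. Formulation: non-phytotoxic solvent with surfactant. Greenhouse 13–15 days; visual 0–100 score relative to controls.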

velvetleaf = assay: Test C pre-/postemergence herbicide test; format: in vivo, Abutilon theophrasti; conditions: preemergence; for Plant response rating (0 = no effect, 100 = complete control), Velvetleaf: 125 g ai/ha
Outline: as §1

Surinam grass = assay: Test C pre-/postemergence herbicide test; format: in vivo, Urochloa decumbens; conditions: preemergence; for Plant response rating (0 = no effect, 100 = complete control), Surinam Grass: 125 g ai/ha
Outline: as §1

pigweed = assay: Test C pre-/postemergence herbicide test; format: in vivo, Amaranthus retroflexus; conditions: preemergence; for Plant response rating (0 = no effect, 100 = complete control), Pigweed: 125 g ai/ha
Outline: as §1

soybean = assay: Test C pre-/postemergence herbicide test; format: in vivo, Glycine max; conditions: preemergence; for Plant response rating (0 = no effect, 100 = complete control), Soybean: 125 g ai/ha
Outline: as §1

wild oat = assay: Test B postemergence herbicide test; format: in vivo, Avena fatua; conditions: scale 0 (no effect) to 100 (complete control)
Outline: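 Treated at 2-leaf (paddy) or 1–4-leaf, 2–18 cm (postemergence); greenhouse 13–15 d; visual score vs control, 0 none to 100 complete control; dash = not tested.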

corn [2] = assay: Test C pre-/postemergence herbicide test; format: in vivo, Zea mays; conditions: preemergence; for Plant response rating (0 = no effect, 100 = complete control), Corn: 125 g ai/ha
Outline: as §1

large crabgrass = assay: Test C pre-/postemergence herbicide test; format: in vivo, Digitaria sanguinalis; conditions: preemergence; for Plant response rating (0 = no effect, 100 = complete control), Crabgrass, Large: 125 g ai/ha
Outline: as §1

johnsongrass = assay: Test C pre-/postemergence herbicide test; format: in vivo, Sorghum halepense; conditions: preemergence; for Plant response rating (0 = no effect, 100 = complete control), Johnsongrass: 125 g ai/ha
Outline: as §1

[3] = 500 g ai/ha, scale 0 to 100 (0 no effect, 100 complete control), visual, 12 to 14 days
[4] = 125 g ai/ha, 100 is complete control
[5] = 125 g ai/ha, visual rating, scale 0 (no effect) to 100 (complete control)
[6] = 500 g ai/ha, scale 0 to 100, 0 is no effect, 100 is complete control
[7] = 125 g ai/ha, visual rating, postemergence

CCc1nn(C(C)(C)CC)nc1C(=O)Nc1cccc(C(=O)N(C)C)c1 [Compound 372]
Plant response rating, Nutsedge, Yellow (yellow nutsedge; 62 g ai/ha, scale 0 to 100): 5
Plant response rating (0 = no effect, 100 = complete control), Nutsedge, Yellow (yellow nutsedge): 30
Plant response rating, Nutsedge, Yellow (yellow nutsedge; 250 g ai/ha, scale 0-100): 40
Plant response rating, Nutsedge, Yellow (yellow nutsedge; [3]): 85
Plant response rating (0 to 100 scale), Corn (corn [1]; [4]): 60
Corn plant response rating (corn [1]; [5]): 20
Corn plant response rating (corn [1]; [6]): 60
Plant response rating, Velvetleaf (velvetleaf; 62 g ai/ha, scale 0 to 100): 50
Plant response rating (0 = no effect, 100 = complete control), Velvetleaf (velvetleaf): 100
Plant response rating, Velvetleaf (velvetleaf; 250 g ai/ha, scale 0-100): 100
Plant response rating, Velvetleaf (velvetleaf; [3]): 100
Plant response rating, Surinam Grass (Surinam grass; 62 g ai/ha, scale 0 to 100): 50
Plant response rating (0 = no effect, 100 = complete control), Surinam Grass (Surinam grass): 85
Plant response rating, Surinam Grass (Surinam grass; 250 g ai/ha, scale 0-100): 85
Plant response rating, Surinam Grass (Surinam grass; [3]): 100
Plant response rating, Pigweed (pigweed; 62 g ai/ha, scale 0 to 100): 85
Plant response rating (0 = no effect, 100 = complete control), Pigweed (pigweed): 95
Plant response rating, Pigweed (pigweed; 250 g ai/ha, scale 0-100): 100
Plant response rating, Pigweed (pigweed; [3]): 100
Plant response rating, Soybean (soybean; 62 g ai/ha, scale 0 to 100): 0
Plant response rating (0 = no effect, 100 = complete control), Soybean (soybean): 5
Plant response rating, Soybean (soybean; 250 g ai/ha, scale 0-100): 20
Plant response rating, Soybean (soybean; [3]): 90
Oat, Wild plant response rating (wild oat; [7]): 0
Oat, Wild plant response rating (wild oat; Postemergence, 500 g ai/ha): 30
Plant response rating, Corn (corn [2]; 62 g ai/ha, scale 0 to 100): 60
Plant response rating (0 = no effect, 100 = complete control), Corn (corn [2]): 60
Plant response rating, Corn (corn [2]; 250 g ai/ha, scale 0-100): 65
Plant response rating, Corn (corn [2]; [3]): 65
Plant response rating, Crabgrass, Large (large crabgrass; 62 g ai/ha, scale 0 to 100): 70
Plant response rating (0 = no effect, 100 = complete control), Crabgrass, Large (large crabgrass): 85
Plant response rating, Crabgrass, Large (large crabgrass; 250 g ai/ha, scale 0-100): 95
Plant response rating, Crabgrass, Large (large crabgrass; [3]): 95
Plant response rating, Johnsongrass (johnsongrass; 62 g ai/ha, scale 0 to 100): 80
Plant response rating (0 = no effect, 100 = complete control), Johnsongrass (johnsongrass): 80
Plant response rating, Johnsongrass (johnsongrass; 250 g ai/ha, scale 0-100): 90
Plant response rating, Johnsongrass (johnsongrass; [3]): 90

CCNC(=O)c1cccc(NC(=O)c2nn(C(C)(C)CC)nc2CC)c1 [Compound 376]
Plant response rating, Nutsedge, Yellow (yellow nutsedge; 62 g ai/ha, scale 0 to 100): 5
Plant response rating (0 = no effect, 100 = complete control), Nutsedge, Yellow (yellow nutsedge): 30
Plant response rating, Nutsedge, Yellow (yellow nutsedge; 250 g ai/ha, scale 0-100): 40
Plant response rating, Nutsedge, Yellow (yellow nutsedge; [3]): 60
Plant response rating (0 to 100 scale), Corn (corn [1]; [4]): 40
Corn plant response rating (corn [1]; [5]): 10
Corn plant response rating (corn [1]; [6]): 30
Plant response rating, Velvetleaf (velvetleaf; 62 g ai/ha, scale 0 to 100): 0
Plant response rating (0 = no effect, 100 = complete control), Velvetleaf (velvetleaf): 5
Plant response rating, Velvetleaf (velvetleaf; [3]): 50
Plant response rating, Surinam Grass (Surinam grass; 62 g ai/ha, scale 0 to 100): 40
Plant response rating (0 = no effect, 100 = complete control), Surinam Grass (Surinam grass): 60
Plant response rating, Surinam Grass (Surinam grass; 250 g ai/ha, scale 0-100): 90
Plant response rating, Surinam Grass (Surinam grass; [3]): 100
Plant response rating, Pigweed (pigweed; 62 g ai/ha, scale 0 to 100): 100
Plant response rating (0 = no effect, 100 = complete control), Pigweed (pigweed): 100
Plant response rating, Pigweed (pigweed; 250 g ai/ha, scale 0-100): 100
Plant response rating, Pigweed (pigweed; [3]): 100
Plant response rating, Soybean (soybean; 62 g ai/ha, scale 0 to 100): 0
Plant response rating (0 = no effect, 100 = complete control), Soybean (soybean): 10
Plant response rating, Soybean (soybean; 250 g ai/ha, scale 0-100): 10
Plant response rating, Soybean (soybean; [3]): 10
Oat, Wild plant response rating (wild oat; [7]): 20
Oat, Wild plant response rating (wild oat; Postemergence, 500 g ai/ha): 40
Plant response rating, Corn (corn [2]; 62 g ai/ha, scale 0 to 100): 20
Plant response rating (0 = no effect, 100 = complete control), Corn (corn [2]): 40
Plant response rating, Corn (corn [2]; 250 g ai/ha, scale 0-100): 45
Plant response rating, Corn (corn [2]; [3]): 50
Plant response rating, Crabgrass, Large (large crabgrass; 62 g ai/ha, scale 0 to 100): 80
Plant response rating (0 = no effect, 100 = complete control), Crabgrass, Large (large crabgrass): 100
Plant response rating, Crabgrass, Large (large crabgrass; 250 g ai/ha, scale 0-100): 100
Plant response rating, Crabgrass, Large (large crabgrass; [3]): 100
Plant response rating, Johnsongrass (johnsongrass; 62 g ai/ha, scale 0 to 100): 60
Plant response rating (0 = no effect, 100 = complete control), Johnsongrass (johnsongrass): 80
Plant response rating, Johnsongrass (johnsongrass; 250 g ai/ha, scale 0-100): 100
Plant response rating, Johnsongrass (johnsongrass; [3]): 100
